According to US20110306801A1, “EXTRACTION AND SEPARATION PROCESSES FOR RECOVERY OF ORGANIC SOLUTES FROM FEED SOURCES AND APPARATUSES FOR PERFORMING SAME” (Trans Ionics Corporation, priority 2009, published 2011):
Like-named read-outs stand apart in the source and are kept apart here.

Columns and labels:
[1] = Extraction of ethanol from water with cetyl alcohol, equilibrium data and distribution coefficient; type: physicochemical; details: aqueous ethanol feed, 75° C.
Method: (§1) DC=(Wo/Ws)ext/(Wo/Ww)raff (1)
(§2) The slope of this line is the distribution coefficient.
Cetyl Alcohol as an Extraction Solvent For Ethanol. Cetyl alcohol was used as a solvent for ethanol extraction. Because cetyl alcohol melts between 47° C. and 50° C. and therefore is a solid at both room temperature (25° C.) and typical fermentation temperatures (40° C.), it has been overlooked as an extraction solvent. Cetyl alcohol was tested at 75° C. at a solvent:feed ratio of 5:1.

[2] = approximately 6.0 grams 100-120 mesh 5 Å sieves, 10.1 mm ID column, 20.0 ml feed with 7.47 wt % ethanol in xylenes
Method: Commercially available Linde 5 Å molecular sieves containing binder were ground and sieved to 100-120 mesh using standard screens. After activation at 400° C., the sieves were cooled to 150° C. and poured directly into mixed xylenes.
The stopcock was opened and samples of liquid were taken every 10 minutes for analysis by gas chromatography. Data were normalized to produce a dimensionless concentration by dividing each of the outlet ethanol concentrations by that of the feed stream.

[3] = Batch separation of ethanol from xylenes using 5 Å zeolite molecular sieves; type: physicochemical; details: 10.0 grams feed (8.00 wt % ethanol, 0.07 wt % water, balance mixed xylenes) with 5.0 gm zeolite, 40° C.
[4] = cetyl alcohol/oleic acid 50/50 wt %, 5:1, 75° C.
Method: One measure of the effectiveness of a solvent for extracting solutes is termed the distribution coefficient, which is calculated as follows in Formula (1):
as §1, §2
Mixtures of Cetyl Alcohol and Other Solvents For Extraction of Ethanol. Mixtures of cetyl alcohol with other solvents were used in order to produce a resulting extraction solvent having a lower melting point than pure cetyl alcohol. […] This solvent mixture was tested for ethanol extraction at a solvent:feed ratio of 5:1 at 75° C.

[5] = ethanol, ABE feed, cetyl alcohol/mixed xylenes 50/50 wt %

In the case of `CCCCCCCCCCCCCCCCO` [Cetyl alcohol], the “emulsion formation as extraction solvent” value [1] is reported as “no indication of the formation of emulsions”.

For `CCO` [ethanol], the “volume of effluent exited the column before ethanol appeared in the product” value [2] was 20 mL, the “ethanol content leveled out after contact with 5 Å zeolite pellets” value [3] was 1.07 wt % and the “Extract (Wo/Ws)” value ([4]; feed Wo/Ww 0.2000) was 0.0316 Wo/Ws. The “Extract (Wo/Ws)” value ([4]; feed Wo/Ww 0.5000) was 0.0848 Wo/Ws, the “Extract (Wo/Ws)” value ([5]; 5:1, 40° C., feed Wo/Ww 0.002) was 0.00002 Wo/Ws and the “Raffinate (Wo/Ww)” value ([5]; 5:1, 40° C., feed Wo/Ww 0.002) was 0.00009 Wo/Ww. The “Extract (Wo/Ws)” value ([5]; 5:1, 40° C., feed Wo/Ww 0.03) was 0.0005 Wo/Ws, the “Raffinate (Wo/Ww)” value ([5]; 5:1, 40° C., feed Wo/Ww 0.03) was 0.0025 Wo/Ww and the “Extract (Wo/Ws)” value ([5]; 5:1, 40° C., feed Wo/Ww 0.06) was 0.0010 Wo/Ws. The “Raffinate (Wo/Ww)” value ([5]; 5:1, 40° C., feed Wo/Ww 0.06) was 0.0052 Wo/Ww, the “Extract (Wo/Ws)” value ([5]; 5:1, 40° C., feed Wo/Ww 0.12) was 0.0021 Wo/Ws and the “Raffinate (Wo/Ww)” value ([5]; 5:1, 40° C., feed Wo/Ww 0.12) was 0.0102 Wo/Ww. For the same compound, the “Raffinate (Wo/Ww)” value ([5]; 5:1, 40° C., feed Wo/Ww 0.15) was 0.0126 Wo/Ww, the “Extract (Wo/Ws)” value ([5]; 5:1, 40° C., feed Wo/Ww 0.19) was 0.0032 Wo/Ws and the “Raffinate (Wo/Ww)” value ([5]; 5:1, 40° C., feed Wo/Ww 0.19) was 0.0152 Wo/Ww. The “Extract (Wo/Ws)” value ([5]; 5:1, 75° C., feed Wo/Ww 0.002) was 0.00003 Wo/Ws, the “Raffinate (Wo/Ww)” value ([5]; 5:1, 75° C., feed Wo/Ww 0.002) was 0.00007 Wo/Ww and the “Extract (Wo/Ws)” value ([5]; 5:1, 75° C., feed Wo/Ww 0.03) was 0.0009 Wo/Ws. For the same compound, the “Raffinate (Wo/Ww)” value ([5]; 5:1, 75° C., feed Wo/Ww 0.03) was 0.0021 Wo/Ww, the “Extract (Wo/Ws)” value ([5]; 5:1, 75° C., feed Wo/Ww 0.06) was 0.0012 Wo/Ws and the “Raffinate (Wo/Ww)” value ([5]; 5:1, 75° C., feed Wo/Ww 0.06) was 0.0043 Wo/Ww. For the same compound, the “Extract (Wo/Ws)” value ([5]; 5:1, 75° C., feed Wo/Ww 0.12) was 0.0025 Wo/Ws, the “Raffinate (Wo/Ww)” value ([5]; 5:1, 75° C., feed Wo/Ww 0.12) was 0.0084 Wo/Ww and the “Extract (Wo/Ws)” value ([5]; 5:1, 75° C., feed Wo/Ww 0.15) was 0.0031 Wo/Ws. For the same compound, the “Raffinate (Wo/Ww)” value ([5]; 5:1, 75° C., feed Wo/Ww 0.15) was 0.0105 Wo/Ww and the “Raffinate (Wo/Ww)” value ([5]; 5:1, 75° C., feed Wo/Ww 0.19) was 0.0125 Wo/Ww.
